Source: patent US11814648B2, “Functional oligodendrocytes derived from pluripotent stem cells and methods of making and using the same” (New York Stem Cell Foundation, Inc., priority 2014, dated 2023)

Columns and labels:
[1] = test system: OLIG2-GFP knock-in hESC reporter line; experiment: Flow cytometric quantification of OLIG2-GFP expression under RA/SHH/SAG conditions; type: cell-based, human
Procedure: FIGS. 2A-2D show the requirement for RA and SHH to derive OLIG2^+ progenitor cells. […] RA at a concentration of 100 nM from day 0 results in the highest yield of GFP^+ cells. […] Negative: hESC line RUES1. […] Error bars are SEM (N=3). […] Only GFP^+ cells form spheres, providing enrichment to the GFP^+ population.
We used an OLIG2-GFP knock-in hESC reporter line (Liu et al., 2011) to track OLIG2^+ progenitors by live fluorescent imaging. First, we induced PAX6^+ cells using dual inhibition of SMAD signaling in adherent cultures. Chambers, S. M. et al., Nat Biotechnol. 27:275-80 (2009). Next, to mimic the embryonic spinal cord environment, we applied different concentrations of RA and/or SHH at various times and quantified OLIG2-GFP expression through flow cytometry (FIG. 2A).
At day 12, cells were detached and placed into low-attachment plates to promote their aggregation into spheres. The minimum number of cells required to form a sphere was at least 100 cells, and we noted that the majority of cells in the spheres were GFP^+. To investigate this further, we sorted day 12 cultures for GFP, and observed that only the GFP^+ cells formed aggregates (FIG. 2C).
At the day of differentiation induction (day 0), medium was switched to Neural Induction Medium, which is mTeSR Custom Medium (Stemcell Technologies) containing the small molecules SB431542 10 μM (Stemgent) and LDN193189 250 nM (Stemgent), as well as 100 nM all-trans-RA (Sigma-Aldrich; St. Louis, Mo.). mTeSR Custom Medium has the same composition as the commercially available mTeSR-1 medium but without five factors that sustain pluripotency, namely lithium chloride, GABA, pipecolic acid, bFGF, and TGFβ1 (Stemcell Technologies). […]
(§1) Cells were enzymatically harvested by ACCUTASE® treatment for 25 min at 37° C. to obtain a single cell suspension. Cells were then re-suspended in 100 μl of their respective medium containing the appropriate amount of either primary antibody or fluorescence-conjugated antibodies and were incubated on ice for 30 minutes shielded from light. […] Flow cytometry data were analyzed using BD FACSDiva™ software.

[2] = test system: O4^+ cells; experiment: FACS-analysis for O4+ cells at day 75 of differentiation; type: cell-based, human; conditions: RA only vs RA and SAG in the first 12 days
Procedure: FIGS. 3A-3C show SHH and dual SMAD inhibition requirements for OLIG2^+ progenitors. […] Endogenous SHH levels are higher in the samples that were not exposed to SHH/SAG. Error bars are SEM (N=3). […] Negative Control: APC-conjugated secondary antibody only.
Spheres were plated on pO/L plates, as described above, in PDGF Medium at day 30, changing ⅔ of the PDGF Medium every other day until day 75 of differentiation. The appearance of O4^+ cells was assessed by live O4 staining from day 55 onwards (FIG. 6). At day 75, O4^+ OPCs could be isolated by FACS (FIG. 7I). Alternatively, for terminal oligodendrocyte differentiation (FIG. 7G-7H), cells were cultured in Glial Medium from day 75, changing ⅔ of the medium every 3 days for two weeks.
as §1, with “light. When secondary antibodies were used, primary antibodies were washed with PBS and secondary antibodies were applied for 30 minutes on ice.” for “light.”

Row | SMILES | OLIG2^+ progenitors yield ([1]; SAG replacing recombinant human SHH from day 8, with 100 nM RA from day 0) [%] | Decrease in the O4^+ population in cells not provided with SAG [2] [%] | OLIG2^+ progenitors generated ([1]; 100 nM RA from the beginning of induction, no exogenous SHH, OLIG2-GFP flow cytometry, day 14) [%] | Yield of GFP^+ cells under different RA and SHH conditions ([1]; RA 100 nM from day 0, day 14 of differentiation)
1 | CN[C@H]1CC[C@H](N(Cc2cccc(-c3ccncc3)c2)C(=O)c2sc3ccccc3c2Cl)CC1 [SAG, 3-chloro-N-[(1r,4r)-4-(methylamino)cyclohexyl]-N-[3-(pyridin-4-yl)benzyl]benzo[b]thiophene-2-carboxamide] | 70.1 | 56 | – | –
2 | CC1=C(/C=C/C(C)=C/C=C/C(C)=C/C(=O)O)C(C)(C)CCC1 [RA, all trans retinoic acid] | – | – | 40.6 | highest yield
